± gives the standard deviation of the averaged measurements.
What was measured:
[1] = compound: C[C@@H]1CN(CC(=O)Nc2ccc3c(c2)Cc2cccc(-c4cc(=O)cc(N5CCOCC5)o4)c2S3)C[C@H](C)O1; test: surviving fraction relative to DMSO-only wells; higher = less growth inhibition; conditions: exposure time: 5 days
Method in brief: (§1)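 Tumour cell lines in log phase were plated in 384-well plates at 250–500 cells per well, then, after 24 hours, exposed continuously for five days to inhibitors at 0.5, 1, 5, 10, 50, 100, 500 and 1000 nM. Viability came from CellTiter-Glo luminescence, and surviving fraction is that signal normalised to the median of DMSO-only wells. Plates were read after 10 minutes at room temperature, and each line, screened three times, was kept only when replicate Pearson r was >0.7 and median Z' was >0.3.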

[2] = compound: T1, Cc1cn(-c2cc(NC(=O)c3ccc(C)c(Nc4nccc(-c5cccnc5)n4)c3)cc(C(F)(F)F)c2)cn1 [NILOTINIB]; test: as above; conditions: exposure time: 5 days
Method in brief: as §1

[3] = compound: CC/C(=C(\c1ccc(O)cc1)c1ccc(OCCN(C)C)cc1)c1ccccc1 [AFIMOXIFENE]; test: area under dose-response curve of surviving fraction (unscaled, Aref=0) (surviving fraction x log10(nM)); higher = more resistant; conditions: exposure time: 5 days; dose range 0.5-1000 nM
Method in brief: (§2)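 Each tumour cell line was screened three times in 384-well plates, receiving eight inhibitor concentrations from 0.5 to 1000 nM for five days. CellTiter-Glo luminescence gave viability, normalised to DMSO-only wells. Using the drc R package, surviving fractions were fitted with 3-parameter logistic dose-response curves, and the unscaled activity area over log10 dose (Aref = 0) was taken as the area under the curve.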

[4] = compound: Cn1ncnc1[C@H]1c2n[nH]c(=O)c3cc(F)cc(c23)N[C@@H]1c1ccc(F)cc1 [BMN-673]; test: as above; conditions: exposure time: 5 days; dose range 0.5-1000 nM
Method in brief: as §2

[5] = compound: T1, NILOTINIB; test: as above; conditions: exposure time: 5 days; dose range 0.5-1000 nM
Method in brief: as §2

Row | Test System | surviving fraction ([1]; 0.5 nM) | surviving fraction ([1]; 1 nM) | surviving fraction ([1]; 5 nM) | surviving fraction ([1]; 10 nM) | surviving fraction ([1]; 50 nM) | surviving fraction ([1]; 100 nM) | surviving fraction ([1]; 500 nM) | surviving fraction ([1]; 1000 nM) | surviving fraction ([2]; 0.5 nM) | surviving fraction ([2]; 1 nM) | surviving fraction ([2]; 5 nM) | surviving fraction ([2]; 10 nM) | surviving fraction ([2]; 50 nM) | surviving fraction ([2]; 100 nM) | surviving fraction ([2]; 500 nM) | surviving fraction ([2]; 1000 nM) | area under dose-response curve [3] | area under dose-response curve [4] | area under dose-response curve [5]
1 | G292 BONE | 0.9787 ± 0.009 | 1.03 ± 0.026 | 0.995 ± 0.026 | 1 ± 0.046 | 0.994 ± 0.03 | 0.977 ± 0.034 | 0.856 ± 0.053 | 0.764 ± 0.017 | 1.04 ± 0.042 | 1 ± 0.044 | 1.08 ± 0.033 | 1.06 ± 0.048 | 1.08 ± 0.031 | 1.1 ± 0.023 | 1.02 ± 0.013 | 0.956 ± 0.023 | 3.18 | 2.57 | 3.44
2 | HCC38 BREAST | 0.973 ± 0.15 | 0.988 ± 0.11 | 1.08 ± 0.19 | 1.02 ± 0.17 | 0.698 ± 0.23 | 0.631 ± 0.086 | 0.418 ± 0.12 | 0.391 ± 0.06 | 0.988 ± 0.28 | 0.786 ± 0.015 | 1.01 ± 0.16 | 0.818 ± 0.15 | 0.742 ± 0.2 | 0.758 ± 0.039 | 0.823 ± 0.24 | 0.824 ± 0.16 | 3.66 | 2 | 2.77
3 | HCC70 BREAST | 1.03 ± 0.038 | 1.07 ± 0.092 | 1.1 ± 0.1 | 1.14 ± 0.07 | 1.15 ± 0.044 | 1.2 ± 0.037 | 1.1 ± 0.041 | 1.07 ± 0.02 | 1.07 ± 0.049 | 1.13 ± 0.036 | 1.12 ± 0.02 | 1.09 ± 0.13 | 1.17 ± 0.052 | 1.33 ± 0.072 | 1.34 ± 0.079 | 1.31 ± 0.04 | 3.6 | 2.62 | 3.93
4 | HMLE3 BREAST | 1 ± 0.041 | 0.914 ± 0.069 | 0.985 ± 0.082 | 0.954 ± 0.042 | 1 ± 0.058 | 0.949 ± 0.12 | 0.918 ± 0.024 | 0.807 ± 0.047 | 1.11 ± 0.018 | 1.07 ± 0.11 | 1.19 ± 0.1 | 1.18 ± 0.15 | 1.25 ± 0.026 | 1.26 ± 0.068 | 1.27 ± 0.15 | 1.23 ± 0.18 | 3.71 | 2.43 | 3.97
5 | HMT3552 BREAST | 0.943 | 0.938 | 0.979 | 1.01 | 0.942 | 0.855 | 0.824 | 0.739 | 1.01 ± 0.031 | 0.968 ± 0.018 | 1.04 ± 0.021 | 1.02 ± 0.018 | 1.09 ± 0.11 | 1.07 ± 0.11 | 1.12 ± 0.12 | 1.1 ± 0.069 | 3.53 | 2.34 | 3.47
6 | HS57T BREAST | 1.1 ± 0.058 | 1.05 ± 0.055 | 1.16 ± 0.017 | 1.1 ± 0.03 | 1.08 ± 0.042 | 1.08 ± 0.084 | 0.945 ± 0.069 | 0.87 ± 0.041 | 1.02 ± 0.12 | 1.05 ± 0.04 | 1.05 ± 0.066 | 1.06 ± 0.015 | 0.99 ± 0.038 | 1.08 ± 0.11 | 0.983 ± 0.03 | 0.967 ± 0.064 |  |  | 
7 | HS578T BREAST | 0.996 ± 0.12 | 0.965 ± 0.14 | 0.861 ± 0.04 | 0.883 ± 0.052 | 0.855 ± 0.13 | 0.814 ± 0.13 | 0.867 ± 0.089 | 0.69 ± 0.042 | 0.935 ± 0.21 | 1.06 ± 0.049 | 0.932 ± 0.16 | 0.796 ± 0.052 | 0.766 ± 0.084 | 0.841 ± 0.1 | 0.848 ± 0.091 | 0.669 ± 0.058 | 3.68 | 2.94 | 2.81

From the supplement of paper PMC6045584
